Where two headings read alike, the source gives them in different places.
Experiments:
[1] = system: SOCE in RBL-2H3 rat mast cells; assay: SOCE Fura-2 bioassay in RBL-2H3 cells; settings: Table 5
Procedure: (§1) Briefly, SOCE inhibition experiments were performed as described in Example 8, using each of the hemp extracts listed below and in Tables 6A and 6B at six concentrations each in each of the five cell types listed above to obtain dose response curves, as shown in FIGS. 11A-11SS. […] All data are averages of three independent runs±SEM. […] Hemp extracts used in FIGS. 11A-11SS are: Sour Space Candy (SSC), Hawaiian Haze (HH), Special Sauce (SS), Suver Haze (SH), White CBG (WCBG), Elektra (ELEK), Cherry Wine (CW), Lifter (LIF), Grape Soda (GS).

[2] = system: SOCE in Jurkat T cells; assay: SOCE Fura-2 bioassay in Jurkat cells; assay type: cell-based, human; settings: for combinatory effect on SOCE inhibition when paired with CBGA (isobolographic analysis): pairs expected to inhibit 50%, FIGS. 10A-10T; for effect on SOCE Ca^2+ signals, pure compounds: 10 μM, 1 μM thapsigargin, FIG. 7A, 7C
[3] = system: SOCE in THP-1 human monocytes; assay: SOCE Fura-2 bioassay in THP-1 cells; settings: for combinatory effect on SOCE inhibition when paired with CBGA (isobolographic analysis): pairs expected to inhibit 50%, FIGS. 10U-10Y; for combinatory effect when paired with 2.2 μM CBGA: 10 μM cannabinoid + 2.2 μM CBGA, FIG. 10Z
[4] = system: SOCE in Luva human mast cells; assay: SOCE Fura-2 bioassay in Luva cells; settings: Table 5
Procedure: as §1

[5] = system: SOCE in HEK-293 human embryonic kidney cells; assay: SOCE Fura-2 bioassay in HEK293 cells; assay type: cell-based; settings: for IC50: Table 5; for inhibitory effect in immune cells compared with non-immune HEK293 cells: 10 μM, HEK293 (FIG. 8) vs immune cells
[6] = system: SOCE in U937 human monocytes; assay: SOCE Fura-2 bioassay in U937 cells; settings: Table 5
Procedure: as §1

[7] = Rattus norvegicus, RBL-2H3, read-out: IC50 SOCE, purified cannabinoids, RBL-2H3
[8] = Homo sapiens, read-out: IC50 SOCE, purified cannabinoids, Jurkat, Table 5
[9] = Homo sapiens, THP-1, read-out: IC50 SOCE, purified cannabinoids
[10] = Homo sapiens, Mast cell, read-out: IC50 SOCE, purified cannabinoids, Luva
[11] = Homo sapiens, HEK293, read-out: IC50 SOCE, purified cannabinoids, HEK-293
[12] = Homo sapiens, U-937, read-out: IC50 SOCE, purified cannabinoids, U937

| Structure (SMILES) | IC50 [1, 7] | IC50 [2, 8] | IC50 [3, 9] | IC50 [4, 10] | IC50 [5, 11] | IC50 [6, 12] | combinatory effect on SOCE inhibition when paired with CBGA (isobolographic analysis) [2] | combinatory effect on SOCE inhibition when paired with CBGA (isobolographic analysis) ([3]; THP-1) | combinatory effect when paired with 2.2 μM CBGA ([3]; THP-1) | IC50 ([1]; read-out: IC50 SOCE, purified cannabinoids, RBL-2H3) | IC50 ([2]; read-out: IC50 SOCE, purified cannabinoids, Table 5) | IC50 ([3]; read-out: IC50 SOCE, purified cannabinoids, THP-1, Table 5) | IC50 ([4]; read-out: IC50 SOCE, purified cannabinoids, Luva) | IC50 ([5]; read-out: IC50 SOCE, purified cannabinoids, HEK-293) | IC50 ([6]; read-out: IC50 SOCE, purified cannabinoids, U937) | effect on SOCE Ca^2+ signals, pure compounds [2] | inhibitory effect in immune cells compared with non-immune HEK293 cells [5] |
| --- | --- | --- | --- | --- | --- | --- | --- | --- | --- | --- | --- | --- | --- | --- | --- | --- | --- |
| CCCCCc1cc(OC)c2c(c1)OC(C)(C)c1ccc(C)cc1-2 [CBNM, 1-methoxy-6,6,9-trimethyl-3-pentyl-6H-benzo[c]chromene] | > 50 µM | > 50 µM | > 50 µM | > 50 µM | > 50 µM | > 50 µM | – | – | – | – | – | – | – | – | – | – | – |
| CCCCCc1cc2c(c(O)c1C(=O)O)-c1cc(C)ccc1C(C)(C)O2 [CBNA, 1-hydroxy-6,6,9-trimethyl-3-pentyl-6H-benzo[c]chromene-2-carboxylic acid] | 22.5 µM | 0.99 µM | 7.25 µM | > 50 µM | 29.5 µM | 19.2 µM | Simple additive | sub-additive | – | – | – | – | – | – | – | – | – |
| CCCCCc1cc(O)c(C/C=C(\C)CCC=C(C)C)c(O)c1 [CBG, (E)-2-(3,7-dimethylocta-2,6-dien-1-yl)-5-penlylbenzene-1,3-diol] | > 50 µM | 2.36 µM | 33.6 µM | 3.29 µM | > 50 µM | 33.5 µM | supra-additive | – | simple additive agonists | – | – | – | – | – | – | – | – |
| C=C(C)[C@@H]1CCC(C)=C[C@H]1c1c(O)cc(CCC)c(C(=O)O)c1O [CBDVA, (1′R,2′R)-2,6-dihydroxy-5′-methyl-2′-(prop-1-en-2-yl)-4-propyl-1′,2′,3′,4′-tetrahydro-[1,1′-biphenyl]-3-carboxylic acid] | 23.5 µM | 11.3 µM | 8.45 µM | 11.3 µM | 20.7 µM | 10.6 µM | sub-additive | – | – | – | – | – | – | – | – | – | – |
| CCCCCc1cc(O)c2c(c1)OC(C)(CCC=C(C)C)C=C2 (stereo not shown) [CBC, 2-methyl-2-(4-methylpent-3-en-1-yl)-7-pentyl-2H-chromen-5-ol] | – | – | – | – | – | – | – | – | – | 31.6 µM | 13.1 µM | > 50 µM | 26.8 µM | 18.7 µM | 40.8 µM | – | – |
| CCCCCc1cc(O)c2c(c1)OC(C)(C)[C@@H]1CCC(C)=C[C@@H]21 [Δ9-THC, (6aR,10aR)-6,6,9-trimethyl-3-pentyl-6a,7,8,10a-tetrahydro-6H-benzo[c]chromen-1-ol] | > 50 µM | > 50 µM | > 50 µM | 0.97 µM | > 50 µM | > 50 µM | – | – | – | – | – | – | – | – | – | low to no effects | – |
| CCCCCc1cc(O)c2c(c1)OC(C)(C)[C@@H]1CC=C(C)C[C@@H]21 [Δ8-THC, (6aR,10aR)-6,6,9-trimethyl-3-pentyl-6a,7,10,10a-tetrahydro-6H-benzo[c]chromen-1-ol] | > 50 µM | 14.2 µM | > 50 µM | 39.7 µM | > 50 µM | > 50 µM | sub-additive | – | sub-additive | – | – | – | – | – | – | – | – |
| C=C(C)[C@@H]1CCC(C)=C[C@H]1c1c(O)cc(CCC)cc1O [CBDV, (1′R,2′R)-5′-methyl-2′-(prop-1-en-2-yl)-4-propyl-1′,2′,3′,4′-tetrahydro-[1,1′-biphenyl]-2,6-diol] | 30.2 µM | 6 µM | > 50 µM | 0.17 µM | 17.8 µM | 17.5 µM | sub-additive | – | – | – | – | – | – | – | – | – | selective |
| CCCc1cc(O)c(C/C=C(\C)CCC=C(C)C)c(O)c1 [CBGV, (E)-2-(3,7-dimethylocta-2,6-dien-1-yl)-5-propylbenzene-1,3-diol] | 30.9 µM | 5.27 µM | 40.7 µM | 6.46 µM | 9.16 µM | 14.5 µM | supra-additive | – | simple additive agonists | – | – | – | – | – | – | – | – |
| CCCc1cc(O)c(C/C=C(\C)CCC=C(C)C)c(O)c1C(=O)O [CBGVA, (E)-3-(3,7-dimethylocta-2,6-dien-1-yl)-2,4-dihydroxy-6-propylbenzoic acid] | 4.15 µM | 1.15 µM | 2.6 µM | 2.53 µM | 2.11 µM | 2.86 µM | Simple additive | sub-additive | – | – | – | – | – | – | – | – | – |
| CCCCCc1cc(O)c2c(c1)OC(C)(C)[C@@H]1CCC(C(=O)O)=C[C@@H]21 [11-COOH-Δ9-THC, (6aR,10aR)-1-hydroxy-6,6-dimethyl-3-pentyl-6a,7,8,10a-tetrahydro-6H-benzo[c]chromene-9-carboxylic acid] | – | – | – | – | – | – | – | – | – | – | – | – | – | – | – | – | selective |
| CCCCCc1cc2c(c(O)c1C(=O)O)C=C[C@@](C)(CCC=C(C)C)O2 [CBCA, (R)-5-hydroxy-2-methyl-2-(4-methylpent-3-en-1-yl)-7-pentyl-2H-chromene-6-carboxylic acid] | > 50 µM | 1.13 µM | 29.1 µM | > 50 µM | > 50 µM | > 50 µM | Simple additive | – | – | – | – | – | – | – | – | – | – |
| C=C(C)[C@@H]1CCC(C)=C[C@H]1c1c(O)cc(CCCCC)c(C(=O)O)c1O [CBDA, (1′R,2′R)-2,6-dihydroxy-5′-methyl-4-penlyl-2′-(prop-1-en-2-yl)-1′,2′,3′,4′-tetrahydro-[1,1′-biphenyl]-3-carboxylic acid] | 16.1 µM | 4.07 µM | 5.17 µM | 2.4 µM | 26.9 µM | 5.83 µM | sub-additive | sub-additive | – | – | – | – | – | – | – | fully block the Ca^2+ signals | selective |
| CCCCCc1cc2c(c(O)c1C(=O)O)[C@@H]1[C@H]3C(CC[C@@]3(C)O2)C1(C)C (stereo partly drawn) [CBLA, (1aS,1a1R,3aR,8bR)-8-hydroxy-1,1,3a-trimethyl-6-pentyl-1a, 1a1,2,3,3a, 8b-hexahydro-1H-4-oxabenzo[f]cyclobuta[cd]indene-7-carboxylic acid] | > 50 µM | 9.29 µM | 12.4 µM | 20.9 µM | 31.1 µM | 28.3 µM | sub-additive | – | – | – | – | – | – | – | – | – | – |
| C=C(C)c1ccc(C)cc1-c1c(O)cc(CCCCC)cc1O [CBND, 5′-methyl-4-pentyl-2′-(prop-1-en-2-yl)-[1,1′ biphenyl]-2,6-diol] | 32.8 µM | 6.7 µM | > 50 µM | 19 µM | 21.4 µM | 24 µM | Simple additive | – | – | – | – | – | – | – | – | – | – |
| CCCCCc1cc2c(c(O)c1C(=O)O)[C@@H]1C=C(C)CC[C@H]1C(C)(C)O2 [THCA, (6aR, 10aR)-1-hydroxy-6,6,9-trimethyl-3-pentyl-6a,7,8,10a-tetrahydro-6H-benzo[c]chromene-2-carboxylic acid] | 17.5 µM | 2.23 µM | 10.4 µM | 0.57 µM | 20.7 µM | 8.1 µM | Simple additive | sub-additive | – | – | – | – | – | – | – | fully block the Ca^2+ signals | – |
| CCCCCc1cc(O)c2c(c1)O[C@]1(C)CC[C@@H]3C1[C@@H]2C3(C)C (stereo partly drawn) [CBL, (1aS,1a1R,3aR,8bR)-1,1,3a-trimethyl-6-pentyl-1a,1a1,2,3,3a,8b-hexahydro-1H-4-oxabenzo[f]cyclobuta[cd]inden-8-ol] | > 50 µM | > 50 µM | > 50 µM | > 50 µM | > 50 µM | > 50 µM | Simple additive | – | – | – | – | – | – | – | – | – | – |
| CCCc1cc(O)c2c(c1)OC(C)(C)[C@@H]1CCC(C)=C[C@@H]21 [THCV, trimethyl-3-propyl-6a,7,8,10a-tetrahydro-6H-benzo[c]chromen-1-ol] | > 50 µM | 10.7 µM | > 50 µM | > 50 µM | > 50 µM | > 50 µM | – | – | – | – | – | – | – | – | – | – | – |
| CCCCCc1cc(O)c2c(c1)OC(C)(C)c1ccc(C)cc1-2 [CBN, 6,6,9-trimethyl-3-pentyl-6H-benzo[c]chromen-1-ol] | 42.6 µM | 9.09 µM | > 50 µM | 33.4 µM | 26.9 µM | 45.3 µM | Simple additive | – | simple additive agonists | – | – | – | – | – | – | – | – |
